According to patent publication US20160145247A1, “Aminomethyl-Biaryl Derivatives Complement Factor D inhibitors and uses thereof” (NOVARTIS AG, priority 2013, published 2016):
pIC50: −log10 of the molar value.

Target: T1, factor D (Homo sapiens, UniProt P00746)
T1 construct: made in house; host or cells: E. coli
Assay: factor D inhibition assay of Biological Example 2
Format: biochemical

T1 sequence (P00746 26-253): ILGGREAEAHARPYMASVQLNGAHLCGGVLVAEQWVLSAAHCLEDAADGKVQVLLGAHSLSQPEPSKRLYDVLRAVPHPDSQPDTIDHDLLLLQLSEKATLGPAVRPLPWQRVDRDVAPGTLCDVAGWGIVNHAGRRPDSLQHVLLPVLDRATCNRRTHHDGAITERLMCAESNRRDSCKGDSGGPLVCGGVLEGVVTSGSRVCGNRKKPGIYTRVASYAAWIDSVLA

SMILES | pIC50
Nc1cc(COc2ccccc2CC(=O)O)cc(-c2cccc([C@H](N)CO)c2)c1 [Example 133, (S)-2-(2-((5-amino-3′-(1-amino-2-hydroxyethyl)-[1,1′-biphenyl]-3-yl)methoxy)phenyl)acetic acid] | 8.05
NCc1cccc(-c2cc(Cl)cc(COc3ccccc3CC(=O)O)c2)c1 [Example 102-B, 2-(2-((3′-(Aminomethyl)-5-chloro-[1,1′-biphenyl]-3-yl)methoxy)phenyl)acetic acid] | 8.05
C[C@@H](N)c1cccc(-c2cc(COc3ccccc3CC(=O)O)cc(S(C)(=O)=O)c2)c1 [Example 251, (R)-2-(2-((3′-(1-aminoethyl)-5-(methylsulfonyl)-[1,1′-biphenyl]-3-yl)methoxy)phenyl)acetic acid] | 6.80
CNC(=O)c1cc(C(=O)Nc2ccccc2CC(=O)O)cc(-c2cccc(CN)c2)c1 [Example 7-D, 2-(2-(3′-(Aminomethyl)-5-(methylcarbamoyl)-[1,1′-biphenyl]-3-ylcarboxamido)phenyl)acetic acid] | 6.61
C[C@@H](N)c1cccc(-c2cc(COc3ccccc3CC(=O)O)cc(OCC3CCCCO3)c2)c1F (stereo partly drawn) [Example 264, 2-(2-((3′-((R)-1-aminoethyl)-2′-fluoro-5-((tetrahydro-2H-pyran-2-yl)methoxy)-[1,1′-biphenyl]-3-yl)methoxy)phenyl)acetic acid] | 7.82
CCOC[C@@H](N)c1cccc(-c2cccc(COc3ccccc3CC(=O)O)c2)c1 [Example 173, (S)-2-(2-((3′-(1-Amino-2-ethoxyethyl)-[1,1′-biphenyl]-3-yl)methoxy)phenyl)acetic acid] | 6.83
N[C@H](CO)c1cccc(-c2ccc3c(c2)C(Oc2ccccc2CC(=O)O)CCC3)c1 (mixture of isomers) [Example 181, 2-(2-((7-(3-((S)-1-Amino-2-hydroxyethyl)phenyl)-1,2,3,4-tetrahydronaphthalen-1-yl)oxy)phenyl)acetic acid (mixture of diastereomers)] | 8.10
CNc1sc(-c2cc(F)cc(CN)c2)nc1C(=O)Nc1cc(C)ccc1CC(=O)O [Example 34-C, 2-(2-(2-(3-(Aminomethyl)-5-fluorophenyl)-5-(methylamino)thiazole-4-carboxamido)-4-methylphenyl)acetic acid] | 8.30
CC(C(=O)O)c1ccccc1NC(=O)c1cccc(-c2cc(F)cc(CN)c2)c1 (racemic) [Example 19-B, (±)-2-(2-(3′-(Aminomethyl)-5′-fluoro-[1,1′-biphenyl]-3-ylcarboxamido)phenyl)propanoic acid] | 6.18
C[C@@H](N)c1cccc(-c2cccc(COc3ccccc3CC(=O)O)c2)n1 [Example 138-I] | 6.52
NCc1ccc(F)c(-c2ccnc(COc3ccccc3CC(=O)O)c2)c1 [Example 176, 2-(2-((4-(5-(Aminomethyl)-2-fluorophenyl)pyridin-2-yl)methoxy)phenyl)acetic acid] | 5.24
C[C@@H](N)c1cccc(-c2cc(COc3ccccc3CC(=O)O)c3c(c2)OCO3)c1 [Example 254, (R)-2-(2-((6-(3-(1-aminoethyl)phenyl)benzo[d][1,3]dioxol-4-yl)methoxy)phenyl)acetic acid] | 7.49
CCCC[C@@H](N)c1cccc(-c2cccc(COc3ccccc3CC(=O)O)c2)c1 [Example 196-D] | 6.19
N#Cc1ccc(CC(=O)O)c(OCc2cccc(-c3cccc(CN)c3)c2)c1 [Example 294-B] | 7.40
CC(=O)N(C)c1cc(COc2ccccc2CC(=O)O)cc(-c2cccc([C@@H](C)N)c2F)c1 [Example 229, (R)-2-(2-((3′-(1-aminoethyl)-2′-fluoro-5-(N-methylacetamido)-[1,1′-biphenyl]-3-yl)methoxy)phenyl)acetic acid] | 6.97
C[C@@H](N)c1cccc(-c2cc(NC[C@@H]3CCCO3)cc(N(C)Cc3ccccc3CC(=O)O)c2)c1F [Example 216-AB] | 7.26
N#Cc1ccc(OCc2cccc(-c3cccc(CN)c3)c2)c(CC(=O)O)c1 [Example 294-F] | 7.15
NCc1cccc(-c2cc(COc3ccccc3CC(=O)O)ccc2F)c1F [Example 137, 2-(2-((3′-(Aminomethyl)-2′,6-difluoro-[1,1′-biphenyl]-3-yl)methoxy)phenyl)acetic acid] | 7.68
NCc1cc(F)cc(-c2cccc(C(=O)Nc3cc(F)ccc3CC(=O)O)c2)c1 [Example 21-I] | 6.33
NCc1cc(F)cc(-c2cc(OC[C@H]3CCCO3)cc(C(=O)Nc3ccccc3CC(=O)O)c2)c1 [Example 76, (R)-2-(2-(3′-(Aminomethyl)-5′-fluoro-5-((tetrahydrofuran-2-yl)methoxy)-[1,1′-biphenyl]-3-ylcarboxamido)phenyl)acetic acid] | 8.22
C[C@@H](N)c1cccc(-c2cc(COc3ccccc3CC(=O)O)cc(NCC(F)(F)F)c2)c1F [Example 226-C, (R)-2-(2-((3′-(1-aminoethyl)-2′-fluoro-5-((2,2,2-trifluoroethyl)amino)-[1,1′-biphenyl]-3-yl)methoxy)phenyl)acetic acid] | 8.10
N[C@H](CO)c1cccc(-c2cc(COc3ccccc3CC(=O)O)cc(NCC3CC3)c2)c1 [Example 128-C, (S)-2-(2-((3′-(1-Amino-2-hydroxyethyl)-5-((cyclopropylmethyl)amino)-[1,1′-biphenyl]-3-yl)methoxy)phenyl)acetic acid] | 8.52
COc1cc(COc2ccccc2CC(=O)O)cc(-c2cccc([C@@H](C)N)c2F)c1 [Example 214-I] | 8.15
C[C@@H](N)c1cccc(-c2cc(Br)cc(COc3ccccc3CC(=O)O)c2)c1F [Example 120-U] | 7.92

More lines, now with the values ahead:

pIC50 | SMILES
8.05 | CCOc1cc(COc2ccccc2CC(=O)O)cc(-c2cccc([C@@H](C)N)c2)c1 [Example 257, (R)-2-(2-((3′-(1-aminoethyl)-5-ethoxy-[1,1′-biphenyl]-3-yl)methoxy)phenyl)acetic acid]
8.70 | NCc1cccc(-c2ccc3c(c2)C(Oc2ccccc2CC(=O)O)CC3)c1 (racemic) [Example 162, (±)-2-(2-((6-(3-(Aminomethyl)phenyl)-2,3-dihydro-1H-inden-1-yl)oxy)phenyl)acetic acid]
5.53 | CCOC(=O)Cc1ccccc1NC(=O)c1cc(NC(C)=O)cc(-c2cc(F)cc(CN)c2)c1 [Example 67-C, Ethyl 2-(2-(5-acetamido-3′-(aminomethyl)-5′-fluoro-[1,1′-biphenyl]-3-ylcarboxamido)phenyl)acetate]
7.59 | N[C@H](CO)c1cccc(-c2cc(COc3ccccc3CC(=O)O)cc(C(O)C3CCCCC3)c2)c1 (single isomer, unassigned) [116-I b) (tr = 4.0 min)]
7.66 | Cn1ccc(Nc2cc(C(=O)Nc3ccccc3CC(=O)O)cc(-c3cc(F)cc(CN)c3)c2)n1 [Example 79-C]
7.68 | C[C@@H](N)c1cccc(-c2cc(CO)cc(COc3ccccc3CC(=O)O)c2)c1 [Example 116-A]
8.52 | CCN(C[C@@H]1CCCO1)c1cc(COc2ccccc2CC(=O)O)cc(-c2cccc([C@@H](C)N)c2F)c1 [Example 216-J]
8.05 | N[C@H](CO)c1cccc(-c2cc(COc3ccccc3CC(=O)O)cc(C(O)C(F)(F)F)c2)c1 (single isomer, unassigned) [116-G b) (tr = 3.4 min)]
7.47 | CCC[C@@H](N)c1cccc(-c2cccc(COc3ccccc3CC(=O)O)c2)c1 [Example 190-E]
7.27 | CCC[C@@H](N)c1cccc(-c2cc(COc3ccccc3CC(=O)O)cc(-c3cnn(C)c3)c2)c1F [Example 203, (R)-2-(2-((3′-(1-Aminobutyl)-2′-fluoro-5-(1-methyl-1H-pyrazol-4-yl)-[1,1′-biphenyl]-3-yl)methoxy)phenyl)acetic acid]
7.20 | NC(CF)c1cccc(-c2cc(COc3ccccc3CC(=O)O)cc(CN3CCOCC3)c2)c1F (single isomer, unassigned) [Example 217-D, (+) or (−)-2-(2-((3′-(1-Amino-2-fluoroethyl)-2′-fluoro-5-(morpholinomethyl)-[1,1′-biphenyl]-3-yl)methoxy)phenyl)acetic acid]
8.05 | NCc1cccc(-c2cccc(COc3cc(CC4CC4)ccc3CC(=O)O)c2)c1 [Example 295-C, 2-(2-((3′-(aminomethyl)-[1,1′-biphenyl]-3-yl)methoxy)-4-(cyclopropylmethyl)phenyl)acetic acid]
7.27 | NCc1cccc(-c2cc(OCc3ccncc3)cc(C(=O)Nc3ccccc3CC(=O)O)c2)c1 [Example 62, 2-(2-(3′-(Aminomethyl)-5-(pyridin-4-ylmethoxy)-[1,1′-biphenyl]-3-ylcarboxamido)phenyl)acetic acid]
8.15 | NCc1cc(F)cc(-c2nc(C(=O)Nc3ccccc3CC(=O)O)c(NC[C@@H]3CCCO3)s2)c1 [Example 33, (S)-2-(2-(2-(3-(Aminomethyl)-5-fluorophenyl)-5-(((tetrahydrofuran-2-yl)methyl)amino)thiazole-4-carboxamido)phenyl)acetic acid]
8.30 | COCCn1cc(-c2cc(COc3ccccc3CC(=O)O)cc(-c3cccc(CN)c3)c2)cn1 [Example 209-E]
8.15 | C[C@@H](N)c1cccc(-c2cc(COc3ccccc3CC(=O)O)cc(OCC3CCCCO3)c2)c1 (stereo partly drawn) [Example 265, 2-(2-((3′-((R)-1-aminoethyl)-5-((tetrahydro-2H-pyran-2-yl)methoxy)-[1,1′-biphenyl]-3-yl)methoxy)phenyl)acetic acid]
8.30 | NCc1cc(F)cc(-c2cc(NCC3CCOC3)cc(C(=O)Nc3ccccc3CC(=O)O)c2)c1 (stereo not drawn) [Example 79-A]
8.00 | N[C@H](CO)c1cccc(-c2cc(CCCF)cc(COc3ccccc3CC(=O)O)c2)c1 [Example 272, (S)-2-(2-((3′-(1-amino-2-hydroxyethyl)-5-(3-fluoropropyl)-[1,1′-biphenyl]-3-yl)methoxy)phenyl)acetic acid]
8.10 | CCOc1cc(COc2ccccc2CC(=O)O)cc(-c2cccc([C@H](N)CO)c2)c1 [Example 115-B]
7.82 | C[C@@H](N)c1cccc(-c2cc(COCC(F)(F)F)cc(COc3ccccc3CC(=O)O)c2)c1 [Example 120-N]
6.33 | NCc1cccc(-c2cccc(CCc3ccccc3CC(=O)O)c2)c1 [Example 16-D, 2-(2-(2-(3′-(Aminomethyl)-[1,1′-biphenyl]-3-yl)ethyl)phenyl)acetic acid]
